Laboratory results taken from US20250262247A1, “MICROGLIAL CELLS AS THERAPEUTIC TARGETS IN NEURODEVELOPMENTAL DISORDERS” (The Regents of the University of California, priority 2022, published 2025).

Test system: MGL
Assay: Phagocytosis assay with block of zymosan uptake
Type: cell-based, human
Conditions: 1 μM, 30 min prior to incubation with zymosan
Experimental: Phagocytosis Assay. Phagocytosis assay was performed according to the manufacturer's instructions with pHrodo™ Red Zymosan A BioParticles® (Life Technologies, Carlsbad, USA) conjugate for phagocytosis. Briefly, 20,000 MGL were plated on a 96-well tissue culture plate and incubated in M2 media [Neurobasal media supplemented with 2×Gem21 NeuroPlex, 1×NEAA, 1× Glutamax] containing fluorescently labeled zymosan particles (0.125 mg/ml) for 2 h at 37° C., 5% CO2. Fluorescence was measured with Tecan Infinite 200 PRO microplate reader (Life Sciences, Switzerland).
For experiments featuring block of zymosan uptake, cell monolayers were treated with 1 μM Cytochalasin D (Sigma-Aldrich) 30 min prior to incubation with zymosan.

SMILES: C=C1[C@@H](C)[C@H]2[C@H](Cc3ccccc3)NC(=O)[C@]23[C@H](OC(C)=O)/C=C/[C@@](C)(O)C(=O)[C@@H](C)C/C=C/[C@H]3[C@@H]1O [Cytochalasin D]
- Engulfment of zymosan particles: reduced
